Here are results for 14 compounds from patent US11028072B2, “2,4-diamino-6-ethylpyrimidine derivatives with antimalarial activities against Plasmodium falciparum” (National Science and Technology Development Agency, priority 2015, dated 2021).

Data set [1] deals with quadruple mutant N51I + C59R + S108N + I164L (QM) pfDHFR (Plasmodium falciparum, UniProt P13922, I164L/N51I). As to the kind of experiment: Inhibition of quadruple mutant pfDHFR (Ki). It counts as biochemical. Here is the method:
(§1) The synthesized 2,4-diamino-6-ethylpyrimdine derivatives as the hydrochloride salts were tested for the activities against Plasmodium falciparum (P. falciparum) according to the standard methods. These include the inhibition of dihydrofolate reductase (DHFR) enzymes of P. falciparum including, wild type (WT) and quadruple mutants (N51IC59RS108NI164L) (QM). The inhibition was expressed as inhibition constants (Ki) in nano molar (nM).

Data set [2] addresses T1, Human dihydrofolate reductase (hDHFR) (Homo sapiens, UniProt P00374).
T1 sequence (P00374 1-187): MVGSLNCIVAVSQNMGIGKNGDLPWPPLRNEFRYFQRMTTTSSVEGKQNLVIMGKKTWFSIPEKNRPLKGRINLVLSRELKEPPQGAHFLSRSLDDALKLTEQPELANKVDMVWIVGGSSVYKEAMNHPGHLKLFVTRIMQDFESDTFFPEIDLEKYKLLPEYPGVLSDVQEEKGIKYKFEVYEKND
The experiment in a line: Inhibition of human dihydrofolate reductase (Ki). It counts as biochemical. As to conditions: human DHFR; hydrochloride salts.

Data set [3] has as its system P. falciparum V1/S (N51I + C59R + S108 + I164L). As to the kind of experiment: microbe, parasite or virus in culture. It counts as cell-based, Plasmodium falciparum. As to conditions: Plasmodium falciparum, read-out: IC50 P. falciparum V1/S. An excerpt:
(§2) In Vitro Antimalarial Activites Against P. falciparum and Cytotoxicity Towards Mammalian Cells (Vero Cells)

Data set [4] relates to P. falciparum TM4/8.2 (wild type). As to the kind of experiment: microbe, parasite or virus in culture. It counts as cell-based, Plasmodium falciparum. As to conditions: Plasmodium falciparum, read-out: IC50 P. falciparum TM4/8.2 (WT).
Description: as §2

A further data set is described as follows: in vitro. As to conditions: African green monkey.
Description: as §2

A further data set deals with wild type (WT) pfDHFR (Plasmodium falciparum, UniProt P13922, N108S/R59C). As to the kind of experiment: Inhibition of wild type pfDHFR (Ki). It counts as biochemical. The protocol:
as §1

[5] abbreviates: in vitro, quadruple mutant strain V1/S.
Where [6] appears, read: in vitro, wild-type strain TM4/8.2.

Read-outs that look alike come from different tables or passages of the source.

Sequence of wild type (WT) pfDHFR (P13922 whole entry R59C/N108S): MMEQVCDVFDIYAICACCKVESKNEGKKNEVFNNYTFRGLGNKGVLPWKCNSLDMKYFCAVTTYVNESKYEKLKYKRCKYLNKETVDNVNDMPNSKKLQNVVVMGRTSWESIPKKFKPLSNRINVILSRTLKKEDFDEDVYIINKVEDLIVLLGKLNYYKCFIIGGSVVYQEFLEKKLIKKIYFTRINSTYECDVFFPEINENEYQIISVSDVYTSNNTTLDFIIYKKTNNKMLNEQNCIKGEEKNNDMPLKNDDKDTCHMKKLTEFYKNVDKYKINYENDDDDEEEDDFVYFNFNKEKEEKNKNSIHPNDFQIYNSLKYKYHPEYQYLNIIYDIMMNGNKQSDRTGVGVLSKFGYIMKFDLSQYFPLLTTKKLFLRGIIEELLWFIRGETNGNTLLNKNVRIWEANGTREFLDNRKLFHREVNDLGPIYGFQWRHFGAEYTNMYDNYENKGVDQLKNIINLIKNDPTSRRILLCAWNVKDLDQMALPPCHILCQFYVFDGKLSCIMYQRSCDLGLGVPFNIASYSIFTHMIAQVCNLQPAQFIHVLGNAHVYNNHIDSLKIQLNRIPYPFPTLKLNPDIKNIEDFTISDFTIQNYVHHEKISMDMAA
Sequence of quadruple mutant N51I + C59R + S108N + I164L (QM) pfDHFR (P13922 whole entry N51I/I164L): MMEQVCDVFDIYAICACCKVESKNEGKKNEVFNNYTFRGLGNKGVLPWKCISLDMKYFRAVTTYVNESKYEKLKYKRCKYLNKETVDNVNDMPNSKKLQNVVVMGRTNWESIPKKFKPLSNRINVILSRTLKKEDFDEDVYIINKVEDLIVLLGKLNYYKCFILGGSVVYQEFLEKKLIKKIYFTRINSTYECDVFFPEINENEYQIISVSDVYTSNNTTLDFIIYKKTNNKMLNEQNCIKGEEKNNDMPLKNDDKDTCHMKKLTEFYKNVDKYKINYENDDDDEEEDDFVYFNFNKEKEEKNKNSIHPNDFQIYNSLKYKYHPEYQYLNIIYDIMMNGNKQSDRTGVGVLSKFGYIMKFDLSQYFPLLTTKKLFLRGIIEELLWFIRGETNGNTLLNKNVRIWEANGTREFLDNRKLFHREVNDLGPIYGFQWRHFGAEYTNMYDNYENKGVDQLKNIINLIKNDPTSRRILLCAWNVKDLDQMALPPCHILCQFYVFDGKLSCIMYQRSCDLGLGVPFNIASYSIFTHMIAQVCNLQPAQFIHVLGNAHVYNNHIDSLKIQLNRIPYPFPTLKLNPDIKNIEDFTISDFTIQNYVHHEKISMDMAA

The term Ki denotes a dissociation constant, usually derived from enzyme kinetics or from competition with a known ligand. For the compound `CCc1nc(N)nc(N)c1OCCc1coc(-c2ccccc2)n1` [Compound 58], the Ki in data set [1] was determined as 4.63 ± 0.22 nM; in data set [2] it was 20.4 ± 2.1 nM; on wild type (WT) pfDHFR it was 0.55 ± 0.02 nM. Further, the IC50 in data set [3] is 53100 ± 15200 nM; in data set [4] it was 48 ± 21 nM; in “in vitro”, 5590 ± 1840 nM.
As for `CCc1nc(N)nc(N)c1OCc1coc(-c2ccc(Cl)cc2)n1` [Compound 55], the Ki in data set [1] was 32.9 ± 4.13 nM; in data set [2], greater than 100000 nM; at wild type (WT) pfDHFR, 1.14 ± 0.17 nM. Further, the IC50 in data set [3] (setting [5]) is greater than 25000 nM; in data set [4] (setting [6]) it was 870 ± 110 nM; in the data set “in vitro”, greater than 25000 nM.
For the compound `CCc1nc(N)nc(N)c1OCc1cn(-c2cccc([N+](=O)[O-])c2)nn1` [Compound 14], the Ki in data set [1] was 237 ± 41.7 nM; in data set [2] it was greater than 500000 nM; on wild type (WT) pfDHFR it was 8.62 ± 1.15 nM. Also, the IC50 in data set [3] (setting [5]) was 4430 ± 1130 nM; in data set [4] (setting [6]), 3420 ± 610 nM; in “in vitro” it was greater than 50000 nM.
Take `CCc1nc(N)nc(N)c1-c1cn(Cc2ccc(C(=O)O)cc2)nn1` [Compound 5]: the Ki in data set [1] was 7.61 ± 0.66 nM; in data set [2] it was 196 ± 20.7 nM; on wild type (WT) pfDHFR, 6.31 ± 0.4 nM. Further, the IC50 in data set [3] (setting [5]) was greater than 10000 nM; in data set [4] (setting [6]), 7950 ± 1380 nM; in “in vitro”, greater than 10000 nM.
As to `CCc1nc(N)nc(N)c1OCc1cn(-c2ccc([N+](=O)[O-])cc2)nn1` [Compound 17], the inhibition constant Ki in data set [1] is 1990 ± 318 nM; in data set [2], greater than 500000 nM; at wild type (WT) pfDHFR it was 42.7 ± 0.99 nM. Besides, the IC50 was 14900 ± 3820 nM in data set [3] (setting [5]), 4250 ± 1370 nM in data set [4] (setting [6]) and greater than 50000 nM in the data set “in vitro”.
For `CCc1nc(N)nc(N)c1OCc1csc(-c2ccc(C(=O)O)cc2)n1` [Compound 75], the Ki in data set [1] was determined as 39.2 ± 3.82 nM; in data set [2] it was 301 ± 24.4 nM; at wild type (WT) pfDHFR it was 0.69 ± 0.12 nM. Further, the figures for the IC50 (in data set [3] (setting [5]); in data set [4] (setting [6]); in “in vitro”) were greater than 50000 nM, 2650 ± 430 nM and greater than 50000 nM, respectively.
On to `CCc1nc(N)nc(N)c1OCc1cn(-c2ccc(C(=O)O)cc2)nn1` [Compound 19], for which the Ki in data set [1] was 671 ± 27.2 nM; at wild type (WT) pfDHFR, 7.79 ± 1.33 nM. The “Ki hDHFR” value in data set [2] was “High”. Further, the IC50 (in data set [3] (setting [5]); in data set [4] (setting [6]); in “in vitro”) was greater than 10000 nM throughout.
For `CCc1nc(N)nc(N)c1OCc1csc(-c2ccc(F)cc2)n1` [Compound 69], the Ki in data set [1] was 45.6 ± 4.68 nM; in data set [2] it was 318 ± 29.7 nM; at wild type (WT) pfDHFR, 0.9 ± 0.18 nM. Further, the IC50 is greater than 25000 nM in data set [3] (setting [5]), 790 ± 380 nM in data set [4] (setting [6]) and greater than 25000 nM in the data set “in vitro”.
As for `CCc1nc(N)nc(N)c1OCCc1cn(-c2ccc(C(=O)O)cc2)nn1` [Compound 22], the Ki in data set [1] was determined as 4.64 ± 0.6 nM; on wild type (WT) pfDHFR, 0.26 ± 0.04 nM. Moreover, in data set [2], the “Ki hDHFR” value was “High”. Moreover, the IC50 is greater than 50000 nM in data set [3] (setting [5]), 620 ± 180 nM in data set [4] (setting [6]) and greater than 50000 nM in “in vitro”.
Regarding `CCc1nc(N)nc(N)c1OCc1csc(-c2cccc(OCC(=O)O)c2)n1` [Compound 64], the figures for the Ki (in data set [1]; in data set [2]; at wild type (WT) pfDHFR) were 41.3 ± 7.41 nM, 184 ± 21.4 nM and 0.6 ± 0.04 nM, respectively. The figures for the IC50 (in data set [3] (setting [5]); in data set [4] (setting [6]); in “in vitro”) were greater than 50000 nM, 550 ± 120 nM and greater than 50000 nM, respectively.
With `CCc1nc(N)nc(N)c1-c1cn(Cc2ccc(OC(=O)N(c3ccccc3)c3ccccc3)cc2)nn1` [Compound 6], the Ki is 17.5 ± 2.19 nM in data set [1] and 10.3 ± 1.69 nM on wild type (WT) pfDHFR. Also, the “Ki hDHFR” value in data set [2] is listed as “High”. The figures for the IC50 (in data set [3] (setting [5]); in data set [4] (setting [6]); in “in vitro”) were 4310 ± 930 nM, 5590 ± 1540 nM and greater than 25000 nM, respectively.
As to `CCc1nc(N)nc(N)c1-c1cn(CCc2ccccc2)nn1` [Compound 7], the figures for the Ki (in data set [1]; in data set [2]; at wild type (WT) pfDHFR) were 70.1 ± 6.92 nM, 3220 ± 86.2 nM and 2.24 ± 0.1 nM, respectively. Further, the IC50 in data set [3] was greater than 50000 nM; in data set [4] it was 2620 ± 330 nM; in the data set “in vitro” it was greater than 50000 nM.
On to `CCc1nc(N)nc(N)c1OCCCc1cc(-c2cccc(C#N)c2)no1` [Compound 47], for which the Ki amounted to 1.02 ± 0.07 nM in data set [1], 21.4 ± 0.91 nM in data set [2] and 0.27 ± 0.03 nM on wild type (WT) pfDHFR. Also, the IC50 is 5510 ± 470 nM in data set [3], 40 ± 7 nM in data set [4] and 560 nM in the data set “in vitro”.
For `CCc1nc(N)nc(N)c1OCc1coc(-c2ccc(OCC(=O)OCc3ccccc3)cc2)n1` [Compound 56], the Ki in data set [1] is 46.7 ± 4.68 nM; in data set [2], greater than 100000 nM; at wild type (WT) pfDHFR, 0.81 ± 0.07 nM. Besides, the IC50 in data set [3] (setting [5]) was 23300 ± 2470 nM; in data set [4] (setting [6]), 580 ± 220 nM; in “in vitro”, greater than 100000 nM.
